Measured values reported in patent US12268770B2, “Use of cell membrane-bound signaling factors” (AiVita Biomedical, Inc., priority 2017, dated 2025).

System: plucked human hair follicles
Assay: ex vivo culture of plucked human hair
Type: cell-based
Details: 0.25 mM; 5 days of exposure; no other growth factors
Method: Plucked human hair with evident presence of the bulb area were immersed immediately after collection in cell growth media. Some of the hair samples were exposed to with lipid-modified protein/MBCD complexes (loaded MBCD) from embryonic stem cell culture as described in Example 2 (referred to as active ingredient), or unloaded MBCD as control, at the same concentration of 0.25 mM of the cyclodextrin component. No other growth factors (e.g., EGF, KGF, etc) were used in the hair follicle cultures.

methyl-β-cyclodextrin [unloaded MBCD]
status of follicles in culture: underwent senescence and detached from the substrate
